Patent US11209437B2, “Fluorescent probe and preparation method and use thereof” (Fluorescence Diagnosis (shanghai) Biotech Company Ltd., priority 2016, dated 2021)

Experiments:
[1] = Viscosity responsiveness: fluorescence emission spectra of probes in glycerol and methanol; format: physicochemical; conditions: for Emission wavelength: excited at maximum excitation wavelength of each probe; for Fluorescence ratio in glycerol to methanol: probe 1×10^−5 M
Procedure, shortened: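 Each probe, from a 1×10^−2 M DMSO stock, was diluted to a final 1×10^−5 M in glycerol and in methanol. Fluorescence emission spectra were then recorded under identical conditions at each probe's maximum excitation wavelength.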

[2] = Fluorescence of free probe prior to binding to a protein tag; format: physicochemical
SNAP protein tags = biological target: T1, SNAP protein tags (Homo sapiens, UniProt P16455, A127T/A154D/C150Q/C62A/E30R/G131K/G132T/G153L/K125A/K32I/L33F/M134L/N157G/Q115S/Q116H/R128A/R135S/S151G/S152D/S159E); assay: Fluorescence activation of probe after incubation with corresponding protein tag (SNAP); format: biochemical; conditions: probe 5 μM, protein tag 10 μM, 37° C., 1 hr
T1 sequence (P16455 1-182 E30R/K32I/L33F/C62A/Q115S/Q116H/K125A/A127T/R128A/G131K/G132T/M134L/R135S/C150Q/S151G/S152D/G153L/A154D/N157G/S159E): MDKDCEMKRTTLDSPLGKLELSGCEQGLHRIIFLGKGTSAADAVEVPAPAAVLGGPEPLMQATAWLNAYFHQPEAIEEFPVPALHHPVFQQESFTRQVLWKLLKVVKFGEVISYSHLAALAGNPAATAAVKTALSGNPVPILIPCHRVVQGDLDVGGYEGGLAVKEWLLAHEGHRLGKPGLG
Procedure, shortened: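 Probe (5 μM final) mixed with CLIP or SNAP protein tag (10 μM final) and incubated 1 hr at 37° C. Fluorescence intensity change measured by fluorescence spectrophotometer, with quantum yield of tag-bound probe determined.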

Row | Structure (SMILES) | Emission wavelength [1] [nm] | Fluorescence ratio in glycerol to methanol [1] | Quantum yield of free probe [2] | Fluorescence activation multiple (SNAP protein tags) | Quantum yield of probe bound to protein tag (SNAP protein tags)
1 | CC(C)(C)OC(=O)/C(C#N)=C/c1ccc2c(c1)SCCN2CCOC(=O)NCc1ccc(COc2nc(N)nc3[nH]cnc23)cc1 [probe 83] | 515 | 103 | <0.001 | 209 | 0.18
2 | N#C/C(=C\c1ccc2c(c1)SCCN2CCOC(=O)NCc1ccc(COc2nc(N)nc3[nH]cnc23)cc1)c1nc2ccccc2o1 [probe 85] | 535 | 187 | <0.001 | 391 | 0.15
3 | N#C/C(=C\c1ccc2c(c1)SCCN2CCOC(=O)NCc1ccc(COc2nc(N)nc3[nH]cnc23)cc1)c1nc2ccccc2s1 [probe 86] | 550 | 214 | <0.001 | 413 | 0.17
4 | CC1=CC(C)(C)N(CCOC(=O)NCc2ccc(COc3nc(N)nc4[nH]cnc34)cc2)c2ccc(/C=C(\C#N)C(=O)OC(C)(C)C)cc21 [probe 87] | 575 | 209 | <0.001 | 515 | 0.45
5 | CC1=CC(C)(C)N(CCOC(=O)NCc2ccc(COc3nc(N)nc4[nH]cnc34)cc2)c2ccc(/C=C(\C#N)c3nc4ccccc4s3)cc21 [probe 89] | 612 | 129 | <0.001 | 421 | 0.32
6 | CC1=CC(C)(C)N(CCOC(=O)NCc2ccc(COc3nc(N)nc4[nH]cnc34)cc2)c2ccc(/C=C(\C#N)C(=O)O)cc21 [probe 105] | 510 | 328 | <0.001 | 549 | 0.41

Further lines, results first:

Row | Emission wavelength [1] [nm] | Fluorescence ratio in glycerol to methanol [1] | Quantum yield of free probe [2] | Fluorescence activation multiple (SNAP protein tags) | Quantum yield of probe bound to protein tag (SNAP protein tags) | Structure (SMILES)
7 | 650 | 182 | <0.001 | 893 | 0.78 | CN(CCOC(=O)NCc1ccc(COc2nc(N)nc3[nH]cnc23)cc1)c1cc2c(s1)-c1sc(/C=C(/C#N)C(=O)O)cc1C2(C)C [probe 98]
8 | 481 | 362 | <0.001 | 463 | 0.37 | CN(CCOC(=O)NCc1ccc(COc2nc(N)nc3[nH]cnc23)cc1)c1ccc(/C=C(\C#N)C(=O)O)cc1 [probe 101]
9 | 515 | 321 | <0.001 | 651 | 0.27 | N#C/C(=C\c1ccc2c(c1)SCCN2CCOC(=O)NCc1ccc(COc2nc(N)nc3[nH]cnc23)cc1)C(=O)O [probe 103]
10 | 555 | 526 | <0.001 | 564 | 0.47 | CN(CCOC(=O)NCc1ccc(COc2nc(N)nc3[nH]cnc23)cc1)c1cc2sc(/C=C(\C#N)C(=O)O)cc2s1 [probe 107]
11 | 566 | 341 | <0.001 | 546 | 0.33 | CN(CCOC(=O)NCc1ccc(COc2nc(N)nc3[nH]cnc23)cc1)c1ccc(C#C/C=C(\C#N)C(=O)O)cc1 [probe 109]
12 | 570 | 621 | <0.001 | 681 | 0.49 | CN(CCOC(=O)NCc1ccc(COc2nc(N)nc3[nH]cnc23)cc1)c1ccc2cc(/C=C(\C#N)C(=O)O)sc2c1 [probe 111]
